Test results taken from patent publication US8362000B2, “Azetidinyl diamides as monoacylglycerol lipase inhibitors” (Janssen Pharmaceutica NV, priority 2009, dated 2013).
Where a chain is given by its changes, count along the chain named. Like-named read-outs stand apart in the source and are kept apart here.

Experiments:
mutant MGL = target: T1, mutant MGL (Homo sapiens, UniProt Q99685, L169S/L176S); assay: MGL ThermoFluor assay - mutant; type: binding
T1 sequence (Q99685 1-303 L169S/L176S): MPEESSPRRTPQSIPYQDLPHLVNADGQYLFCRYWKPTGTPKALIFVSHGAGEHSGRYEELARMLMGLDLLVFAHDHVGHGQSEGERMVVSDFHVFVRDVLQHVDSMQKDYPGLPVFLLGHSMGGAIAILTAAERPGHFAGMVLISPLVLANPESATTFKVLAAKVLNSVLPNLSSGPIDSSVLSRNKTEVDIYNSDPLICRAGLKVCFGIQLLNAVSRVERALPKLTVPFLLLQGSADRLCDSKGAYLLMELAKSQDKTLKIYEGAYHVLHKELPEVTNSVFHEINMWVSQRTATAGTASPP

MGL = target: T2, MGL (Rattus norvegicus, UniProt Q8R431); assay: 2-AG accumulation assay in rat brain homogenate; type: biochemical; conditions: rat brain homogenate, 2-AG accumulation as percent of vehicle; for 2-AG accumulation, % of vehicle control at 0.01 µM: compound 0.01 μM, read-out: Rat Brain 2AG % VehCntrl (%) @ 0.01 μM; for 2-AG accumulation, % of vehicle control at 0.1 µM: compound 0.1 μM, read-out: Rat Brain 2AG % VehCntrl (%) @ 0.1 μM; for 2-AG accumulation, % of vehicle control at 1 µM: compound 1 μM, read-out: Rat Brain 2AG % VehCntrl (%) @ 1 μM; for 2-AG accumulation, % of vehicle control at 10 µM: compound 10 μM, read-out: Rat Brain 2AG % VehCntrl (%) @ 10 μM
T2 construct: one g rat brain was homogenized using a Polytron homogenizer; from tissue; host or cells: rat brain homogenate
T2 sequence (Q8R431 1-303): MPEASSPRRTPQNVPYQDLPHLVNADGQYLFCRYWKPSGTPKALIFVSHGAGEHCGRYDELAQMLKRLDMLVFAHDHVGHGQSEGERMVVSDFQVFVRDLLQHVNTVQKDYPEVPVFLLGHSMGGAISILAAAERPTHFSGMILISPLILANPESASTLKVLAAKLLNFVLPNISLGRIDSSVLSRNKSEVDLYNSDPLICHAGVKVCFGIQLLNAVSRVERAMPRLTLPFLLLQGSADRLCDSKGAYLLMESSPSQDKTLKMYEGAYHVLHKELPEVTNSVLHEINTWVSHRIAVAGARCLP

[1] = target: T3, purified wild type MGL (wt-MGLL 6H-11-313) (Homo sapiens, UniProt Q99685)
T3 sequence (Q99685 1-303): T1 sequence (Q99685 1-303 L169S/L176S) with S169L, S176L

[2] = system: CFA-induced paw radiant heat hypersensitivity; assay: CFA-induced paw radiant heat hypersensitivity; type: in vivo, rat; conditions: Rattus norvegicus, po, 30 mg/kg p.o., HPβCD, last time point 180 or 300 min
Description: Each rat was placed in a test chamber on a warm glass surface and allowed to acclimate for approximately 10 min. A radiant thermal stimulus (beam of light) was then focused through the glass onto the plantar surface of each hind paw in turn. The thermal stimulus was automatically shut off by a photoelectric relay when the paw was moved or when the cut-off time was reached (20 sec for radiant heat at ˜5 amps). An initial (baseline) response latency to the thermal stimulus was recorded for each animal prior to the injection of complete Freund's adjuvant (CFA). […] Immediately following the post-CFA latency assessment, the indicated test compound or vehicle was administered orally.
The percent reversal (% R) of hypersensitivity was calculated in one of two different ways: 1) using group mean values or 2) using individual animal values. More specifically:
Method 2. For some compounds, the % R of hypersensitivity was calculated separately for each animal according to the following formula: % reversal=[(individual treatment response−individual CFA response)/(individual baseline response−individual CFA response)]×100. Results are given as a mean of the maximum % reversal values calculated for each individual animal.

[3] = ThermoFluor thermal stability binding assay, read-out: MGL mutant ThermoFluor Kd
[4] = group mean values, read-out: CFA thermal hypersensitivity Method 1: peak % reversal
[5] = individual animal values, read-out: CFA thermal hypersensitivity Method 2: peak % reversal
[6] = ThermoFluor concentration-response, read-out: MGL mutant ThermoFluor Kd

Row | Compound | Kd (mutant MGL; [3]) | 2-AG accumulation, % of vehicle control at 0.01 µM (MGL) | 2-AG accumulation, % of vehicle control at 0.1 µM (MGL) | 2-AG accumulation, % of vehicle control at 1 µM (MGL) | 2-AG accumulation, % of vehicle control at 10 µM (MGL) | IC50 [1] | Kd (mutant MGL; [6]) | Kd (mutant MGL; compound concentration measured by qNMR, read-out: MGL mutant ThermoFluor qKd (using qNMR conc.)) | Kd (mutant MGL; ThermoFluor, compound concentration measured by qNMR, read-out: MGL mutant ThermoFluor qKd (μM) (using qNMR conc.)) | inhibition in vivo at 30 mg/kg [2, 4] | inhibition in vivo at 30 mg/kg [2, 5]
1 | O=C(c1ccc2nc(-c3ccc(C(F)(F)F)cc3)oc2c1)N1CC(N2CCN(C(=O)c3nccs3)CC2)C1 [Cpd 314, 6-({3-[4-(1,3-Thiazol-2-ylcarbonyl)piperazin-1-yl]azetidin-1-yl}carbonyl)-2-[4-(trifluoromethyl)phenyl]-1,3-benzoxazole] | 0.0392 µM | 175% | 237% | 512% | 553% | < 5 nM | – | – | – | 41% | 41.2%
2 | Cc1nc(-c2ccc(Cl)cc2)sc1C(=O)N1CC(N2CCN(C(=O)c3nccs3)CC2)C1 [Cpd 489, 1-(1-{[2-(4-Chlorophenyl)-4-methyl-1,3-thiazol-5-yl]carbonyl}azetidin-3-yl)-4-(1,3-thiazol-2-ylcarbonyl)piperazine] | – | 119% | 235% | 790% | 950% | 9 nM | 0.0104 µM | – | – | 27.1% | 43.5%
3 | O=C(c1ccccc1)N1CCN(C2CN(C(=O)c3ccc4c(-c5cccc(C(F)(F)F)c5)c[nH]c4c3)C2)CC1 [Cpd 572] | – | – | – | 397% | – | 31 nM | 0.03 µM | – | – | -5.1% | –
4 | O=C(c1cc2cc(C(F)(F)F)ccc2s1)N1CC(N2CCN(C(=O)c3nccs3)CC2)C1 [Cpd 316, 1-(1,3-Thiazol-2-ylcarbonyl)-4-(1-{[5-(trifluoromethyl)-1-benzothiophen-2-yl]carbonyl}azetidin-3-yl)piperazine] | 0.0165 µM | 243% | 265% | 760% | 694% | < 5 nM | – | – | – | 69.3% | 70.8%
5 | Cc1c(C(=O)N2CC(N3CCN(C(=O)c4ccc[nH]4)CC3)C2)sc2cc(C(F)(F)F)ccc12 [Cpd 657, 1-(1-{[3-Methyl-6-(trifluoromethyl)-1-benzothiophen-2-yl]carbonyl}azetidin-3-yl)-4-(1H-pyrrol-2-ylcarbonyl)piperazine] | – | – | – | 581% | – | 9 nM | 0.002 µM | 0.002 µM | – | 66% | –
6 | COc1cc(C(=O)N2CC(N3CCN(C(=O)c4cscn4)CC3)C2)ccc1-c1ccc(F)c(Cl)c1 [Cpd 261, 1-{1-[(3′-Chloro-4′-fluoro-2-methoxybiphenyl-4-yl)carbonyl]azetidin-3-yl}-4-(1,3-thiazol-4-ylcarbonyl)piperazine] | 0.0091 µM | – | 148% | 525% | 856% | 8.4 nM | – | – | – | 26.4% | 27.5%
7 | O=C(c1cscn1)N1CCN(C2CN(C(=O)c3sc4c(F)c(C(F)(F)F)ccc4c3Cl)C2)CC1 [Cpd 670] | 0.001 µM | – | – | 650% | – | 15 nM | – | – | 0.001 µM | 20.9% | –
8 | O=C(c1nccs1)N1CCN(C2CN(C(=O)c3sc4cc(C(F)(F)F)ccc4c3Cl)C2)CC1 [Cpd 324, 1-(1-{[3-Chloro-6-(trifluoromethyl)-1-benzothiophen-2-yl]carbon-yl}azetidin-3-yl)-4-(1,3-thiazol-2-ylcarbonyl)piperazine] | 0.0004 µM | – | 941% | – | – | < 5 nM | – | – | – | 48.7% | 55.8%
9 | O=C(c1ccc2c(ccn2-c2ccc(F)cc2F)c1)N1CC(N2CCN(C(=O)c3cscn3)CC2)C1 [Cpd 1139, 1-(2,4-Difluorophenyl)-5-({3-[4-(1,3-thiazol-4-ylcarbonyl)piperazin-1-yl]azetidin-1-yl}carbonyl)-1H-indole] | – | – | – | 654% | – | 27 nM | 0.017 µM | – | – | 43.8% | –
10 | O=C(c1ccc2c(ccn2-c2ccc(F)c(F)c2)c1)N1CC(N2CCN(C(=O)c3ccc[nH]3)CC2)C1 [Cpd 1366, 1-(3,4-Difluorophenyl)-5-({3-[4-(1H-pyrrol-2-ylcarbonyl)piperazin-1-yl]azetidin-1-yl}carbonyl)-1H-indole] | – | – | – | 586% | – | < 5 nM | 0.012 µM | – | – | 47.1% | –

Now from value to compound, other results behind:

Row | Kd (mutant MGL; [3]) | 2-AG accumulation, % of vehicle control at 0.01 µM (MGL) | 2-AG accumulation, % of vehicle control at 0.1 µM (MGL) | 2-AG accumulation, % of vehicle control at 1 µM (MGL) | 2-AG accumulation, % of vehicle control at 10 µM (MGL) | IC50 [1] | Kd (mutant MGL; [6]) | Kd (mutant MGL; compound concentration measured by qNMR, read-out: MGL mutant ThermoFluor qKd (using qNMR conc.)) | Kd (mutant MGL; ThermoFluor, compound concentration measured by qNMR, read-out: MGL mutant ThermoFluor qKd (μM) (using qNMR conc.)) | Compound | inhibition in vivo at 30 mg/kg [2, 4] | inhibition in vivo at 30 mg/kg [2, 5]
11 | 0.0232 µM | – | 184% | 538% | 639% | 50.8 nM | – | – | – | Cc1cc(-c2cccc(C(F)(F)F)c2)ccc1C(=O)N1CC(N2CCN(C(=O)c3cscn3)CC2)C1 [Cpd 240, 1-(1-{[3-Methyl-3′-(trifluoromethyl)biphenyl-4-yl]carbonyl}azetidin-3-yl)-4-(1,3-thiazol-4-ylcarbonyl)piperazine] | 43% | 44.4%
12 | – | – | – | 891% | – | 19 nM | 0.003 µM | – | – | Cc1c(C(=O)N2CC(N3CCN(C(=O)c4cscn4)CC3)C2)sc2cc(C(F)(F)F)ccc12 [Cpd 674, 1-(1-{[3-Methyl-6-(trifluoromethyl)-1-benzothiophen-2-yl]carbonyl}azetidin-3-yl)-4-(1,3-thiazol-4-ylcarbonyl)piperazine] | 57.7% | –
13 | 0.0017 µM | 180% | 472% | – | – | < 5 nM | – | – | – | O=C(c1nccs1)N1CCN(C2CN(C(=O)c3ccc(-c4cccc(C(F)(F)F)c4)cc3Cl)C2)CC1 [Cpd 250, 1-(1-{[3-Chloro-3′-(trifluoromethyl)biphenyl-4-yl]carbonyl}azetidin-3-yl)-4-(1,3-thiazol-2-ylcarbonyl)piperazine] | 41.7% | 41.9%
14 | 0.005 µM | 153% | 290% | – | – | 10 nM | – | – | – | Cc1cc(-c2cccc(C(F)(F)F)c2)ccc1C(=O)N1CC(N2CCN(C(=O)c3nccs3)CC2)C1 [Cpd 239, 1-(1-{[3-Methyl-3′-(trifluoromethyl)biphenyl-4-yl]carbonyl}azetidin-3-yl)-4-(1,3-thiazol-2-ylcarbonyl)piperazine] | 81.8% | 87.5%
15 | – | – | – | 861% | – | 7 nM | 0.011 µM | – | – | O=C(c1cscn1)N1CCN(C2CN(C(=O)c3sc4cc(C(F)(F)F)ccc4c3F)C2)CC1 [Cpd 653] | -10.7% | –
